From the supplement of paper PMC13380429
Counter-ions that a name gives are not always drawn. ± gives the standard deviation of the averaged measurements.

Key:
Settings in all cases: 72 h
Caco-2 [1] = experiment: cell viability relative to DMSO; higher = less toxic
Calu-3 [2] = experiment: as above
Vero E6 [3] = experiment: as above
U2OS [4] = experiment: as above
Caco-2 [5] = experiment: drug sensitivity score (DSS) for viability; higher = more toxic; extreme values may be limits of the assay
Calu-3 [6] = experiment: as above
Vero E6 [7] = experiment: as above
U2OS [8] = experiment: as above
Caco-2 [9] = experiment: relative viability EC50 (midpoint between 100% and the lowest measured viability); higher = less toxic
Calu-3 [10] = experiment: as above
Vero E6 [11] = experiment: as above
U2OS [12] = experiment: as above
HepG2 [13] = experiment: cell viability relative to DMSO; higher = less toxic
HepG2 [14] = experiment: drug sensitivity score (DSS) for viability; higher = more toxic; extreme values may be limits of the assay
HepG2 [15] = experiment: relative viability EC50 (midpoint between 100% and the lowest measured viability); higher = less toxic

SMILES | cell viability (Caco-2 [1]; 1 nM) [%] | cell viability (Caco-2 [1]; 10 nM) [%] | cell viability (Caco-2 [1]; 100 nM) [%] | cell viability (Caco-2 [1]; 1000 nM) [%] | cell viability (Caco-2 [1]; 10000 nM) [%] | cell viability (Calu-3 [2]; 1 nM) [%] | cell viability (Calu-3 [2]; 10 nM) [%] | cell viability (Calu-3 [2]; 100 nM) [%] | cell viability (Calu-3 [2]; 1000 nM) [%] | cell viability (Calu-3 [2]; 10000 nM) [%] | cell viability (Vero E6 [3]; 1 nM) [%] | cell viability (Vero E6 [3]; 10 nM) [%] | cell viability (Vero E6 [3]; 100 nM) [%] | cell viability (Vero E6 [3]; 1000 nM) [%] | cell viability (Vero E6 [3]; 10000 nM) [%] | cell viability (U2OS [4]; 1 nM) [%] | cell viability (U2OS [4]; 10 nM) [%] | cell viability (U2OS [4]; 100 nM) [%] | cell viability (U2OS [4]; 1000 nM) [%] | cell viability (U2OS [4]; 10000 nM) [%] | drug sensitivity score (Caco-2 [5]) | drug sensitivity score (Calu-3 [6]) | drug sensitivity score (Vero E6 [7]) | drug sensitivity score (U2OS [8]) | relative viability EC50 (Caco-2 [9]) [µM] | relative viability EC50 (Calu-3 [10]) [µM] | relative viability EC50 (Vero E6 [11]) [µM] | relative viability EC50 (U2OS [12]) [µM] | cell viability (HepG2 [13]; 1 nM) [%] | cell viability (HepG2 [13]; 10 nM) [%] | cell viability (HepG2 [13]; 100 nM) [%] | cell viability (HepG2 [13]; 1000 nM) [%] | cell viability (HepG2 [13]; 10000 nM) [%] | drug sensitivity score (HepG2 [14]) | relative viability EC50 (HepG2 [15]) [µM]
CC(=O)NC1N=C(c2ccccc2)c2ccccc2NC1=O (stereo not given) | 103 | 97.7 | 93.9 | 101 | 103 | 112 | 101 | 101 | 101 | 95.1 | 98.5 | 96.5 | 99 | 93.7 | 108 | 101 | 94.6 | 95.5 | 95.3 | 96.9 | 0 | 0 | 0 | 0 | > 10 | > 10 | > 10 | > 10 | – | – | – | – | – | – | –
CCCOc1ccc(Br)cc1-c1cc(-c2ccc(Cl)cc2)[nH]c1-c1ccncc1 | 95.3 | 95.3 | 93.6 | 100 | 84.8 | 99.6 | 96.3 | 103 | 94.2 | 103 | 95.6 | 102 | 99.7 | 98 | 85.7 | 104 | 106 | 104 | 97.5 | 98.6 | 0.2 | 0 | 0.4 | 0 | > 10 | > 10 | > 10 | > 10 | 104 | 97.7 | 96.1 | 101 | 65.9 | 1.5 | –
C[C@H](NC(=O)[C@@H](Cc1c[nH]c2ccccc12)NC(=O)[C@@H](N)Cc1c[nH]cn1)C(=O)N[C@@H](Cc1c[nH]c2ccccc12)C(=O)N[C@H](Cc1ccccc1)C(=O)N[C@@H](CCCCN)C(N)=O | 92 | 97 | 98.7 | 99.6 | 110 | 94.6 | 109 | 107 | 107 | 99.1 | 108 | 100 | 99.1 | 100 | 102 | – | – | – | – | – | 0 | 0 | 0 | – | > 10 | > 10 | > 10 | – | – | – | – | – | – | – | –
c1ccc(CNCc2ccc(CN3CCCNCCNCCCNCC3)cc2)nc1 [AMD-3465] | 105 | 100 | 102 | 100 | 96.2 | 102 | 97.5 | 94.1 | 101 | 115 | – | – | – | – | – | 102 | 99.3 | 101 | 99 | 103 | 0 | 0 | – | 0 | > 10 | > 10 | – | > 10 | 102 | 101 | 101 | 103 | 97.3 | 0 | > 10
COc1cc2ncnc(Nc3cccc(Cl)c3F)c2cc1OC(=O)N1CCN(C)C[C@H]1C [AZD3759] | 94.4 | 91.1 | 91.2 | 90.1 | 81.9 | 86.5 | 93.6 | 93.1 | 48.4 | 32.2 | 94.7 | 90.3 | 81.8 | 60.8 | 51.6 | 96.8 | 101 | 95.6 | 95.6 | 92.8 | 1.1 | 10.6 | 9.3 | 0 | > 10 | 0.442 | – | > 10 | 101 | 86.6 | 104 | 95.8 | 101 | 0 | > 10
CN1CCC(Nc2ncc3ncnc(Nc4ccc(F)c(Cl)c4)c3n2)CC1 [BIBX-1382] | 99 | 104 | 85.4 | 81.4 | 63.3 | 101 | 115 | 95.8 | 70.2 | 27.4 | 104 | 104 | 90.1 | 61.7 | 36.2 | 99.4 | 104 | 95.9 | 98.9 | 83.8 | 4.4 | 7.6 | 8.4 | 0.4 | – | 1.21 | 0.634 | > 10 | 102 | 93.6 | 98.8 | 95.8 | 68.3 | 2.1 | –
CC(C)C[C@@H](NC(=O)[C@H](Cc1ccccc1)NC(=O)CNC(=O)[C@@H](C)NC(=O)[C@@H](N)Cc1ccc(O)cc1)C(=O)O [BW-180C] | 113 | 96.9 | 98.6 | 102 | 101 | 97.6 | 94.5 | 91.1 | 100 | 89.4 | – | – | – | – | – | 99.4 | 97.8 | 104 | 104 | 99.1 | 0 | 0 | – | 0 | > 10 | > 10 | – | > 10 | 105 | 98.4 | 99.4 | 102 | 100 | 0 | > 10
O[C@H]1CC[C@H](Nc2ncc3nc(Nc4c(F)cc(F)cc4F)n([C@H]4CCOC4)c3n2)CC1 [CC-930] | 99.1 | 102 | 102 | 96.7 | 86.1 | 101 | 100 | 104 | 87.5 | 81.7 | 98.5 | 97 | 98.3 | 93.7 | 73.4 | 97.3 | 104 | 95 | 96.7 | 91.1 | 0.4 | 1.6 | 2 | 0 | > 10 | > 10 | – | > 10 | 104 | 102 | 93.5 | 97.1 | 89.6 | 0 | > 10
COc1cc2c(cc1OC)C(c1ccc(N)cc1)=NNC(=O)C2 [CFM-2] | 93.1 | 102 | 98.7 | 95.5 | 98 | 95.5 | 100 | 98.3 | 112 | 101 | 98.7 | 93.8 | 96.6 | 96.1 | 100 | 97.1 | 98.2 | 95.4 | 95.5 | 87.1 | 0 | 0 | 0 | 0 | > 10 | > 10 | > 10 | > 10 | 109 | 97.2 | 104 | 113 | 71 | 0.8 | –
CN(C)C(=O)COC(=O)Cc1ccc(OC(=O)c2ccc(NC(=N)N)cc2)cc1 [Camostat mesylate] | – | – | – | – | – | 99.8 | 97.1 | 104 | 91 | 97 | 95.9 | 105 | 88.8 | 102 | 100 | 104 | 107 | 97.4 | 100 | 99.4 | – | 0 | 0 | 0 | – | > 10 | > 10 | > 10 | 102 | 96.2 | 97 | 100 | 103 | 0 | > 10
Cn1nccc1Nc1nccc(-c2ccn([C@H](CO)c3ccc(Cl)c(F)c3)c(=O)c2)n1 [GDC-0994] | 97.6 ± 3.7 | 98.4 ± 3.1 | 87.8 ± 2.5 | 82.4 ± 5.8 | 79.9 ± 6.7 | 99.2 ± 6.9 | 103 ± 3 | 97.9 ± 7.3 | 96.45 ± 0.78 | 110 ± 4.3 | 104 ± 7.4 | 101 ± 3.4 | 101 ± 5.4 | 87.75 ± 0.35 | 70.9 ± 5.8 | 96.9 ± 0.14 | 101.3 ± 0.99 | 92.2 ± 3.8 | 97.4 ± 0.85 | 96.8 ± 2.9 | 3.15 ± 2.6 | 0 | 2.6 ± 0.28 | 0 | > 10 | > 10 | – | > 10 | 106.8 ± 0.57 | 96.8 ± 3 | 74.8 ± 3.2 | 38.2 ± 1.2 | 40.6 ± 3.4 | 14.5 ± 0.28 | 0.119
COC[C@H](C)Oc1cc(O[C@@H](C)Cc2ccccc2)cc(C(=O)Nc2ccc(C(=O)O)cn2)c1 [GKA-50] | 100 | 97 | 96.2 | 96.2 | 92.7 | 96.9 | 103 | 97.8 | 107 | 98.2 | – | – | – | – | – | 103 | 104 | 103 | 99.4 | 98.8 | 0 | 0 | – | 0 | > 10 | > 10 | – | > 10 | 112 | 105 | 99.5 | 120 | 113 | 0 | > 10
CCCCCCCCCCCCCCCc1cccc(OCC(=O)NCCO)c1 [PDP-EA] | 105 | 109 | 98.2 | 109 | 109 | 102 | 87.2 | 94.9 | 91.5 | 91.7 | – | – | – | – | – | – | – | – | – | – | 0 | 0 | – | – | > 10 | > 10 | – | – | 102 | 113 | 95.6 | 115 | 103 | 0 | > 10
OC(c1ccc(-c2ccc(CN3CCN(Cc4ccncc4)CC3)cc2)c(F)c1)(C(F)(F)F)C(F)(F)F [SR-2211] | 113 | 95.4 | 101 | 86.4 | 76.1 | 101 | 101 | 93.6 | 95.9 | 95.5 | 103 | 99.8 | 103 | 100 | 103 | 98.4 | 106 | 102 | 102 | 95.7 | 2.4 | 0 | 0 | 0 | > 10 | > 10 | > 10 | > 10 | 94.2 | 101 | 98.8 | 95.4 | 58 | 2.9 | –
O=C1c2c(O)cccc2C([C@@H]2O[C@H](CO)[C@@H](O)[C@H](O)[C@H]2O)c2cc(CO)cc(O)c21 (stereo not given in full) [aloin] | 92.1 | 104 | 96.6 | 93.9 | 99.4 | 104 | 95.7 | 103 | 104 | 97.3 | – | – | – | – | – | 96.9 | 100 | 92.9 | 97.4 | 92.7 | 0 | 0 | – | 0 | > 10 | > 10 | – | > 10 | 106 | 94.1 | 103 | 94.7 | 103 | 0 | > 10
COc1cc2c(Oc3ccc4[nH]c(C)cc4c3F)ccnc2cc1OCC1(N)CC1 [anlotinib] | 91.7 | 93.8 | 94.4 | 87.4 | 76.2 | 94.8 | 93.4 | 99.3 | 100 | 84.5 | 91.2 | 98.6 | 97 | 95.2 | 84.4 | 95.1 | 102 | 96.9 | 99.4 | 54.7 | 1.8 | 0.2 | 0.5 | 2.4 | > 10 | > 10 | > 10 | – | 106 | 99.6 | 101 | 103 | 59.2 | 1.8 | –
